Laboratory results: patent publication US10393751B2, “Specific peptide binders to proteins identified via systematic discovery, maturation and extension process” (Roche […], Inc., priority 2015, dated 2019)

Target: streptavidin (Streptomyces avidinii, UniProt P22629)
Assay: Surface Plasmon Resonance (Biacore X100) of synthesized peptides on immobilized streptavidin
Assay type: binding
Conditions: for KD (equilibrium dissociation constant, kd/ka) / Kd / kon / koff: SPR; for kon: read-out: Ka (association rate constant); for koff: read-out: Kd (dissociation rate constant)
Source text: A selection of streptavidin peptide binders listed in Table 15 were synthesized using standard column-based synthesis techniques by UW Biotechnology center (Madison, Wis.) or by Peptide2.0 (Chantilly, Va.) at 98-99% purity. Strep-tag II peptide NH2-SAWSHPQFEK-COOH was purchased from IBA GmbH (Goettingen, Germany). Synthesized peptides were then characterized by Surface Plasmon Resonance (SPR) to identify binding characteristics including the association rate constant (ks), dissociation rate constant (kd), and equilibrium dissociation rate constant (kd/ka=KD). In one aspect, SPR experiments were performed by using Biacore X100 instrument (GE Healthcare). Preliminarily, 60 μl of 100 μg/ml streptavidin in 10 mM Na-acetate, pH5.0 was immobilized to flow cell 2 (Fc2) of a sensor chip CM5 (GE Healthcare) using Amine Coupling Kit (GE Healthcare) at 20° C. for 6 min. Peptide stock solutions were prepared at 5 or 10 mM concentration in water and diluted in HBS-EP+ (GE Healthcare) buffer before SPR experiments. Peptide binding was performed in a multiple kinetics mode using HBS-EP+ as a running buffer and 0.2 M NaCl, 10 mM NaOH or 10 mM HCl-glycine, […] as regeneration buffer. Binding kinetics parameters were calculated with Biacore X100 software.

[1] = streptavidin immobilized on CM5 chip, HBS-EP+ running buffer
[2] = KD (equilibrium dissociation constant, kd/ka), streptavidin immobilized on CM5 chip, HBS-EP+ running buffer
[3] = KD of peptide-streptavidin complex, restated in text from Table 15

Sequence of streptavidin (P22629 25-183, species assumed): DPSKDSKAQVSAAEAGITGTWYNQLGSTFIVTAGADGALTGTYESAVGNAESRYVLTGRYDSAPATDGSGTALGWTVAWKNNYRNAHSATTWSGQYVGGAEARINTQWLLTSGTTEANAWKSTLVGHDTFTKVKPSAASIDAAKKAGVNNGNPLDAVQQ

Row | Substance | KD (equilibrium dissociation constant, kd/ka) [1] | kon [1] [M⁻¹ s⁻¹] | KD as compared with the Strep-Tag II peptide (SEQ ID NO:233) (result in words) | other results
1 | GNSFDDWLASKG [NH2-GNSFDDWLASKG-amide] | Irreversible | – | – | binding as compared with the parent peptide NSFDDWLAKGG (result in words): irreversible binding
2 | H-ADYLAEYHGG-OH [NH2-ADYLAEYHGG-COOH] | – | – | – | Kd [2]: 96 ± 5 µM; Kd [3]: ~96 µM
3 | H-AFDYLAQYHGG-NH2 [NH2-AFDYLAQYHGG-amide] | – | 23300 | – | koff [1]: 0.0354 s⁻¹
4 | H-AFPDYLAEYHGG-NH2 [NH2-AFPDYLAEYHGG-amide] | 0.043 µM | 30100 | – | koff [1]: 0.00128 s⁻¹; KD rank among the streptavidin peptide binders in Table 15 (result in words): lowest KD
5 | H-DPAPAWAHGG-OH [NH2-DPAPAWAHGG-COOH] | – | – | – | Kd [2]: > 500 µM
6 | H-EWVHPQFEQKAK-NH2 [NH2-EWVHPQFEQKAK-amide] | – | – | decreased KD | –
7 | H-RDPAPAWAHGGG-NH2 [NH2-RDPAPAWAHGGG-amide] | 4.66 µM | 14900 | – | Kd [3]: ~4.66 µM; change in KD as compared with the parent peptide (parent peptide DPAPAWAHGG (SEQ ID NO:242)): ≥ 100 fold
8 | H-WTHPQFEQK-OH [NH2-WTHPQFEQK-COOH] | – | – | decreased KD | –
9 | H-WTHPQFEQPKA-NH2 [NH2-WTHPQFEQPKA-amide] | – | – | decreased KD | –
